A short description of this assay: Biological Assay: Mutant IDH1 R132H Biochemical Assay mIDH1 catalyzes the NADPH-dependent reduction of alpha-ketoglutarate (a-KG) to (2R)-2-hydroxyglutarate (2-HG). NADPH consumption was measured by luminescent readout.The biochemical reactions were performed at 32° C. in 384-well plates using a reaction volume of 41 μL and the following assay buffer conditions: 50 mM Tris pH 7.5, 100 mM NaCl, 20 mM MgCl2, 0.05% BSA, 0.01% Brij, 1 μM NADPH, and 250 μM α-KG. The IDH1 R132H enzyme was used in a final concentration of 1.5 nM. Test compounds were used in a concentration range between 0.002 and 10 μM. The final DMSO concentration was 2.4%.The reaction was incubated for 30 minutes, then 40 μL of detection mix (0.75 μg/ml Luciferase, 0.02 U/ml Oxidoreductase, 4 μg/mL FMN, 2 μL/ml decanal/ethanol, 50 mM Tris pH 7.5, 0.5% Glycerin, 0.01% Tween-20, 0.05% BSA) was added. Luminescence was measured on a luminescent reader (10 seconds measuring time, 1 second integration period, 30% sensitivity). The decrease in luminescence is proportional to mIDH1 activity. IC50 values are determined by interpolation from plots of relative luminescence versus inhibitor concentration.

The IC50 is the concentration that gives 50% inhibition. For the compound `COC(=O)c1ccc2c(c1)nc(Nc1ccc(OC(F)(F)F)cc1)n2[C@@H]1C[C@H](C)CC[C@H]1C(C)C`, half-maximal inhibition (IC50) was put at 38 nM.
